From the NIST ThermoML archive (doi:10.1016/j.jct.2019.05.015)
“And” between values parts separate entries of the source, which are not always exact repeats. Equal entries are not always repeated.

Key:
[1] = Molar enthalpy of transition or fusion; details: Crystal; DSC
[2] = for Normal melting temperature: Crystal, DTA; for Glass transition temperature: DSC
[3] = molar heat capacity at constant pressure; details: 101.33 kPa, DSC

Nc1ccc(Cl)cc1 [4-chlorobenzenamine]
Details	Molar enthalpy of transition or fusion [kJ/mol]	Normal melting temperature [°C]
[1]	19.7	–
[2]	–	70

Oc1cccc(O)c1 [1,3-benzenediol]
Details	Molar enthalpy of transition or fusion [kJ/mol]	Normal melting temperature [°C]
[1]	20.1	–
[2]	–	109.1

molar heat capacity at constant pressure [J/K/mol], [3]
Details	233 K	253 K	273 K	293 K	303 K	313 K	323 K	333 K	343 K	363 K
Crystal	103.9	114.4	124.9	135.3	–	145.8	–	156.3	–	–
Metastable liquid	–	–	–	–	237.2	–	245.8	–	254.3	262.9

Oc1ccc2c(O)cccc2c1 [1,6-dihydroxynaphthalene]
Details	Glass transition temperature [°C]	Molar enthalpy of transition or fusion [kJ/mol]	Normal melting temperature [°C]
[1]	–	25.8	–
[2]	32	–	137.1

[3]
Details	molar heat capacity at constant pressure
218 K, Glass	131.4 J/K/mol
238 K, Glass	147.4 J/K/mol
243 K, Crystal	149.1 J/K/mol
258 K, Glass	163.5 J/K/mol
263 K, Crystal	161.4 J/K/mol
283 K, Crystal	173.7 J/K/mol
303 K, Crystal	186 J/K/mol
323 K, Crystal	197.9 J/K/mol and 198.4 J/K/mol
323 K, Metastable liquid	311.2 J/K/mol
343 K, Crystal	210.6 J/K/mol and 210.7 J/K/mol
343 K, Metastable liquid	315.6 J/K/mol
363 K, Crystal	223.2 J/K/mol and 223 J/K/mol
363 K, Metastable liquid	319.9 J/K/mol
383 K, Crystal	235.9 J/K/mol
383 K, Metastable liquid	324.3 J/K/mol
403 K, Metastable liquid	328.7 J/K/mol

Cc1ccc(O)cc1 [4-methylphenol]
Details	Molar enthalpy of transition or fusion [kJ/mol]	Normal melting temperature [°C]
[1]	11.8	–
[2]	–	34.8

Nc1ccc2ccccc2c1 [2-naphthalenamine]
Details	Molar enthalpy of transition or fusion [kJ/mol]	Normal melting temperature [°C]
[1]	22.2	–
[2]	–	109.5

Nc1cccc2ccccc12 [1-naphthalenamine]
Details	Molar enthalpy of transition or fusion [kJ/mol]	Normal melting temperature [°C]
[1]	14.5	–
[2]	–	48.2

Nc1cccc(N)c1 [1,3-benzenediamine]
Details	Glass transition temperature [°C]	Molar enthalpy of transition or fusion [kJ/mol]	Normal melting temperature [°C]
[1]	–	15.5	–
[2]	-29	–	63.0

[3]
Details	molar heat capacity at constant pressure [J/K/mol]
223 K, Crystal	108.9
243 K, Crystal	121.4
253 K, Metastable liquid	207.5
263 K, Crystal	133.8
273 K, Metastable liquid	213.4
283 K, Crystal	146.2
293 K, Metastable liquid	219.3
303 K, Crystal	158.7
313 K, Metastable liquid	225.2
323 K, Metastable liquid	229.7
333 K, Metastable liquid	231.2
343 K, Liquid	234
353 K, Liquid	237.1
363 K, Liquid	240.2

Oc1ccc2ccccc2c1 [2-hydroxynaphthalene]
Details	Molar enthalpy of transition or fusion [kJ/mol]	Normal melting temperature [°C]
[1]	22.4	–
[2]	–	121.2

Oc1cccc2ccccc12 [1-naphthol]
Details	Molar enthalpy of transition or fusion [kJ/mol]	Normal melting temperature [°C]
[1]	21.9	–
[2]	–	94.8
